Results from paper PMC6978316, “Development of chimeric peptides to facilitate the neutralisation of lipopolysaccharides during bactericidal targeting of multidrug-resistant Escherichia coli” (Communications Biology, 2020).
Where a SMILES comes first, the peptide text is derived from it. Bridges are numbered along the chain shown (N, C = ends).

What was measured:
MDR E. coli CVCC195 [1] = assay: Time-killing curves (bactericidal kinetics); assay type: cell-based, Escherichia coli; conditions: 1 × or 2 × MIC, MHB, 37 °C
Experimental: The bactericidal effect of peptides was investigated according to previous methods. […] Physiological saline was added as a control. Bacterial samples (100 μl) were removed at different time points (0, 0.5, 1, 2, 4, 6, 8, 10, and 12 h) and were counted on MH solid plates. The time-killing curve of A6 and G6 was plotted.

MDR E. coli CVCC195 [2] = assay: Thermal stability, residual antibacterial activity (inhibition zone); assay type: physicochemical, Escherichia coli; conditions: mean of n = 3
Experimental: (§1) The N6, A6, and G6 solutions were treated at different temperatures (20–100 °C) for 1 h, dissolved and incubated at different pH values (2–10) for 3 h, or incubated with trypsin or pepsin for 4 h. The inhibition zone diameters were measured after incubation at 37 °C for 18–24 h.

MDR E. coli CVCC195 [3] = assay: pH stability, residual antibacterial activity (inhibition zone); assay type: physicochemical, Escherichia coli; conditions: inhibition zone vs E. coli CVCC195, mean of n = 3
Experimental: as §1

trypsin = assay type: in vitro ADME
Experimental: as §1

E. coli CVCC195 = assay type: cell-based, Escherichia coli; conditions: E. coli CVCC195
Experimental: Bacterial resistance against the peptides was assessed via the MIC assays. […] After 16–18 h of incubation at 37 °C, cells from the second highest concentration showing visible growth were used to inoculate the subsequent cultures. The MIC values for drug passage cultures were obtained as described above. This process was repeated for 30 d.

E. coli LPS = assay: BODIPY-TR-cadaverine (BC) displacement assay; assay type: binding, Escherichia coli; conditions: 100 μM
Experimental: The affinity of SCPs (A6, G6, and N6) to E. coli LPS was detected by the fluorescent BC probe. The binding of fluorescent probe with LPS can cause fluorescence quenching. When peptides bind to LPS, BC probe can be replaced, which can result in an increase in fluorescence. Equal volumes of LPS (40 μg per ml) and BC probe (10 μM) in 50 mM Tris buffer (pH 7.4) were mixed and added into a black 96-well microtiter plate (180 μl mixture per well), followed by the addition of different concentrations of A6, G6, or N6 (20 μl per well). Ampicillin and PMB were used as the negative and positive control, respectively. Changes in fluorescence were measured by a fluorescence spectrophotometry at room temperature (excitation: 580 nm, emission: 620 nm) and the BC displacement rate was calculated.

[4] = tested on: binding of FITC-labeled LPS to RAW 264.7 cells; assay: Binding of FITC-labeled LPS to macrophages (flow cytometry); assay type: cell-based, mouse; conditions: FITC-LPS 100 μg per ml, 0.1 μM peptide 1 h
Experimental: Similarly, after an incubation with FITC-labeled LPS and washing with medium, cells were incubated with rhodamine-labeled A6 or G6 (0.1 μM) at 37 °C for 1 h. After washing again, the effects of peptides on the binding of FITC-labeled LPS to the cells were analyzed by CLSM and flow cytometry, respectively.

[5] = tested on: Intestinal alkaline phosphatase (IAP); assay: IAP level in duodenum of LPS-challenged mice; assay type: in vivo; conditions: duodenum homogenate, peptides 0.25 μmol per kg, PMB 10 μmol per kg, LPS alone 10.2985, CK 14.2257, n = 3
Experimental: The mice were intraperitoneally injected with LPS at an absolute LD100 and then were treated with 0.25 μmol per kg peptides (A6, G6 and N6) or 10 μmol per kg PMB at 0.5 h after challenge. The mice were sacrificed at 2 h and the sera were collected to detect inflammatory cytokines (including TNF-α, IL-6 and IL-10) using ELISA kits. To visualize IAP activity, the duodenum was rapidly excised from the mice and was homogenized; the IAP levels in the superpants were detected as described in the Supplementary Information. […]
114 Effects of SCPs on inflammatory cytokines and IAP. The serum sample (50 μl) was added into
115 each well of the plate; 50 μl of TNF-α, IL-I, IL-10 or IAP standard, control and test samples were then
116 added to each well of the plate, followed by placing the latex film on the shaker and incubation for 2
117 h at room temperature. After discarding the liquid in the well, the enzyme labeling plate was placed in
118 a 400 μl washing solution in the washing machine for 4 times; the enzyme labeling plate is inverted
119 and tapped on a clean paper towel so that there was no residual liquid in each hole . Mouse TNF-α，
120 IL-I，IL10 or IAP Conjugate (HRP Conjugate Detection Ab) working solution (100 μl) was added to
121 each well of the plate (diluted 1:100 before the test); the latex film was placed on the shaker and
122 incubated for 2 h at room temperature. After discarding the liquid in the well, the enzyme labeling
123 plate was placed in a 400 μl washing solution in the washing machine for 4 times, then the enzyme
124 labeling plate is inverted, and tapped on a clean paper towel so that there is no residual liquid in each
125 hole. Substrate Solution (100 μl) was added to each well of the plate and incubated at room
126 temperature for 30 min in the dark. Finally, 100 μl of Stop Solution (2N sulfuric acid solution) was
127 added to each well of the plate and gently mixed the plate to stop the reaction. The optical density
128 value was read by placing the microplate in a microplate reader for 30 min with the reading
129 wavelength of 450 nm and the calibration wavelength of 570 nm.
131 1. Kaplan, C. W., et al. Selective membrane disruption: mode of action of C16G2, a specifically
133 2. Eckert, R., et al. Adding selectivity to antimicrobial peptides: rational design of a multidomain
134 peptide against Pseudomonas spp. Antimicrob Agents Chemother. 50(4), 1480–1488 (2006).
135 3. Eckert, R., et al. Targeted killing of Streptococcus mutans by a pheromone-guided "smart"

LPS-induced lung injury = assay: Protection of lung tissues from LPS (histology); assay type: in vivo; conditions: LPS-challenged mice, 0.25 μmol per kg
Experimental: The mice were treated with N6 (0.25 μmol per kg), A6 (0.25 μmol per kg), G6 (0.25 μmol per kg), and PMB (10 μmol per kg), respectively after the intraperitoneal injection of LPS at a concentration of LD100. The lung tissues were taken at 1 d and 6 d, respectively, washed with PBS and placed in 4% paraformaldehyde for 24 h at 4 °C. After washing with PBS, the tissues were dehydrated by a series of different concentrations of ethanol (75%, 85%, 90%, and 95%) and were immersed in xylene for paraffin embedding. After sectioning, the samples were stained with hematoxylin and were observed by a light microscope. The mice challenged with LPS and PBS served as the negative and blank control, respectively.

[6] = 20℃ for 1 h, inhibition zone vs E. coli CVCC195 after 37 °C 18–24 h
[7] = 40℃ for 1 h, inhibition zone vs E. coli CVCC195
[8] = 60℃ for 1 h, inhibition zone vs E. coli CVCC195
[9] = 80℃ for 1 h, inhibition zone vs E. coli CVCC195
[10] = 100℃ for 1 h, inhibition zone vs E. coli CVCC195

## CC(C)[C@@H]1NC(=O)CNC(=O)[C@H](CC(N)=O)NC(=O)[C@H](CCCNC(=N)N)NC(=O)[C@H](Cc2ccc(O)cc2)NC(=O)[C@H](C(C)C)NC(=O)[C@@H](NC(=O)[C@@H](NC(=O)[C@H](CC(N)=O)NC(=O)[C@H](Cc2c[nH]c3ccccc23)NC(=O)[C@H](C)NC(=O)[C@H](Cc2ccccc2)NC(=O)CNC(=O)[C@H](CO)NC(=O)CNC(=O)CNC(=O)CNC(=O)CNC(=O)[C@H](CCCCN)NC(=O)[C@H](Cc2ccccc2)NC(=O)[C@H](Cc2ccccc2)NC(=O)[C@H](CO)NC(=O)[C@H](C)NC(=O)[C@H](CCCNC(=N)N)NC(=O)[C@@H](NC(=O)[C@H](CCCCN)NC(=O)[C@H](Cc2c[nH]c3ccccc23)NC(=O)[C@H](CCCNC(=N)N)NC(=O)CNC(=O)[C@H](CCC(N)=O)NC(=O)[C@@H](NC(=O)[C@@H](N)CCCNC(=N)N)C(C)C)C(C)C)C(C)C)CSSC[C@@H](C(=O)N[C@@H](Cc2c[nH]cn2)C(=O)N[C@@H](CCCNC(=N)N)C(=O)N[C@@H](CCCNC(=N)N)C(=O)N[C@@H](C)C(=O)N[C@@H](CC(N)=O)C(=O)O)NC(=O)[C@H](C(C)C)NC(=O)[C@H](CCCNC(=N)N)NC1=O [G6] (H-RVQGRWKVRASFFKGGGGSGFAWNVCVYRNGVRVCHRRAN-OH; disulfide 26-35)
MDR E. coli CVCC195 [1]
  time to completely kill E. coli CVCC195: ≤ 1 h
MDR E. coli CVCC195 [2]; [6]
  antibacterial activity after heat treatment (inhibition zone diameter), Mean: 1.451
MDR E. coli CVCC195 [2]; [7]
  antibacterial activity after heat treatment (inhibition zone diameter), Mean: 1.421
MDR E. coli CVCC195 [2]; [8]
  antibacterial activity after heat treatment (inhibition zone diameter), Mean: 1.5
MDR E. coli CVCC195 [2]; [9]
  antibacterial activity after heat treatment (inhibition zone diameter), Mean: 1.473
MDR E. coli CVCC195 [2]; [10]
  antibacterial activity after heat treatment (inhibition zone diameter), Mean: 1.413
MDR E. coli CVCC195 [3]; pH=2 for 3 h
  antibacterial activity after pH treatment (inhibition zone diameter), Mean: 1.407
MDR E. coli CVCC195 [3]; pH=4 for 3 h
  antibacterial activity after pH treatment (inhibition zone diameter), Mean: 1.44
MDR E. coli CVCC195 [3]; pH=6 for 3 h
  antibacterial activity after pH treatment (inhibition zone diameter), Mean: 1.4
MDR E. coli CVCC195 [3]; pH=8 for 3 h
  antibacterial activity after pH treatment (inhibition zone diameter), Mean: 1.383
MDR E. coli CVCC195 [3]; pH=10 for 3 h
  antibacterial activity after pH treatment (inhibition zone diameter), Mean: 1.387
trypsin
  antibacterial activity after trypsin (inhibition zone diameter), Mean: 0
E. coli CVCC195
  change of MIC over the course of 30 serial passages: hardly changed
E. coli LPS
  BC displacement ratio: 100%
[4]
  inhibition rate of FITC-labeled LPS binding to RAW 264.7 cells: 44.3%
[5]
  IAP, Mean: 11.4812
LPS-induced lung injury
  lung histology at 1 d: partial alleviation of tissue swelling and injury
  lung histology at 6 d: no pathological changes

## CC(C)[C@@H]1NC(=O)CNC(=O)[C@H](CC(N)=O)NC(=O)[C@H](CCCNC(=N)N)NC(=O)[C@H](Cc2ccc(O)cc2)NC(=O)[C@H](C(C)C)NC(=O)[C@@H](NC(=O)[C@@H](NC(=O)[C@H](CC(N)=O)NC(=O)[C@H](Cc2c[nH]c3ccccc23)NC(=O)[C@H](C)NC(=O)[C@H](Cc2ccccc2)NC(=O)CN)C(C)C)CSSC[C@@H](C(=O)N[C@@H](Cc2c[nH]cn2)C(=O)N[C@@H](CCCNC(=N)N)C(=O)N[C@@H](CCCNC(=N)N)C(=O)N[C@@H](C)C(=O)N[C@@H](CC(N)=O)C(=O)O)NC(=O)[C@H](C(C)C)NC(=O)[C@H](CCCNC(=N)N)NC1=O [N6] (H-GFAWNVCVYRNGVRVCHRRAN-OH; disulfide 7-16; N-terminus and C-terminus assumed)
MDR E. coli CVCC195 [1]
  time to completely kill E. coli CVCC195: 4 h
MDR E. coli CVCC195 [2]; [6]
  antibacterial activity after heat treatment (inhibition zone diameter), Mean: 1.935
MDR E. coli CVCC195 [2]; [7]
  antibacterial activity after heat treatment (inhibition zone diameter), Mean: 1.912
MDR E. coli CVCC195 [2]; [8]
  antibacterial activity after heat treatment (inhibition zone diameter), Mean: 1.95
MDR E. coli CVCC195 [2]; [9]
  antibacterial activity after heat treatment (inhibition zone diameter), Mean: 1.964
MDR E. coli CVCC195 [2]; [10]
  antibacterial activity after heat treatment (inhibition zone diameter), Mean: 1.917
MDR E. coli CVCC195 [3]; pH=2 for 3 h
  antibacterial activity after pH treatment (inhibition zone diameter), Mean: 1.883
MDR E. coli CVCC195 [3]; pH=4 for 3 h
  antibacterial activity after pH treatment (inhibition zone diameter), Mean: 1.877
MDR E. coli CVCC195 [3]; pH=6 for 3 h
  antibacterial activity after pH treatment (inhibition zone diameter), Mean: 1.87
MDR E. coli CVCC195 [3]; pH=8 for 3 h
  antibacterial activity after pH treatment (inhibition zone diameter), Mean: 1.86
MDR E. coli CVCC195 [3]; pH=10 for 3 h
  antibacterial activity after pH treatment (inhibition zone diameter), Mean: 1.887
E. coli LPS
  BC displacement ratio: 90.5%
[4]
  inhibition rate of FITC-labeled LPS binding to RAW 264.7 cells: 8%
[5]
  IAP, Mean: 10.7594
LPS-induced lung injury
  lung histology at 1 d: partial alleviation of tissue swelling and injury
  lung histology at 6 d: no pathological changes

## H-RVQGRWKVRASFFKEAAAKEAAAKGFAWNVCVYRNGVRVCHRRAN-OH (disulfide 31-40) [A6]
MDR E. coli CVCC195 [1]
  time to completely kill E. coli CVCC195: ≤ 1 h
MDR E. coli CVCC195 [2]; [6]
  antibacterial activity after heat treatment (inhibition zone diameter), Mean: 1.498
MDR E. coli CVCC195 [2]; [7]
  antibacterial activity after heat treatment (inhibition zone diameter), Mean: 1.533
MDR E. coli CVCC195 [2]; [8]
  antibacterial activity after heat treatment (inhibition zone diameter), Mean: 1.494
MDR E. coli CVCC195 [2]; [9]
  antibacterial activity after heat treatment (inhibition zone diameter), Mean: 1.5
MDR E. coli CVCC195 [2]; [10]
  antibacterial activity after heat treatment (inhibition zone diameter), Mean: 1.477
MDR E. coli CVCC195 [3]; pH=2 for 3 h
  antibacterial activity after pH treatment (inhibition zone diameter), Mean: 1.463
MDR E. coli CVCC195 [3]; pH=4 for 3 h
  antibacterial activity after pH treatment (inhibition zone diameter), Mean: 1.443
MDR E. coli CVCC195 [3]; pH=6 for 3 h
  antibacterial activity after pH treatment (inhibition zone diameter), Mean: 1.4
MDR E. coli CVCC195 [3]; pH=8 for 3 h
  antibacterial activity after pH treatment (inhibition zone diameter), Mean: 1.41
MDR E. coli CVCC195 [3]; pH=10 for 3 h
  antibacterial activity after pH treatment (inhibition zone diameter), Mean: 1.4
trypsin
  antibacterial activity after trypsin (inhibition zone diameter), Mean: 0
E. coli CVCC195
  change of MIC over the course of 30 serial passages: hardly changed
E. coli LPS
  BC displacement ratio: 100%
[4]
  inhibition rate of FITC-labeled LPS binding to RAW 264.7 cells: 33.2%
[5]
  IAP, Mean: 11.893
LPS-induced lung injury
  lung histology at 1 d: partial alleviation of tissue swelling and injury
  lung histology at 6 d: no pathological changes

## polymyxin B [PMB]
MDR E. coli CVCC195 [1]
  time to completely kill E. coli CVCC195: ≤ 1 h
E. coli CVCC195
  change of MIC over the course of 30 serial passages: hardly changed
E. coli LPS
  BC displacement ratio: 83.7%
[4]
  inhibition rate of FITC-labeled LPS binding to RAW 264.7 cells: 13.5%
[5]
  IAP, Mean: 13.0879
